Conditions: Transpiration method

Cn1c(=O)c2c(ncn2C)n(C)c1=O [caffeine]
Conditions | vapor or sublimation pressure [kPa]
366.2 K, Crystal 2 | 0.00017
373.3 K, Crystal 2 | 0.00033
379.9 K, Crystal 2 | 0.00055
383.9 K, Crystal 2 | 0.00077
386.9 K, Crystal 2 | 0.00106
389.8 K, Crystal 2 | 0.00128
395.9 K, Crystal 2 | 0.00223
400.9 K, Crystal 2 | 0.00338
405 K, Crystal 2 | 0.00441
406 K, Crystal 2 | 0.00525
408 K, Crystal 2 | 0.00577
410.1 K, Crystal 2 | 0.00693
420.2 K, Crystal 1 | 0.01448
424.9 K, Crystal 1 | 0.02064
430.1 K, Crystal 1 | 0.02868
434.5 K, Crystal 1 | 0.03685

— the NIST ThermoML archive (doi:10.1016/j.jct.2008.07.002)
